# Test results from PMC12267067, “Targeting GRPR for sex hormone-dependent cancer after loss of E-cadherin” (Nature, 2025).
# Experiments:
# [1] = test system: Grpr expression in ESR1pos 1057 melanoma cells; assay: Pharmacological targeting of ERα: Grpr expression in 1057 cells; type: cell-based, mouse; conditions: 100 nM E2 or 1 µM ICI 182,780, 72 h, after oestrogen starvation for four days
# Procedure: (§1) RNA (3 µg) was reverse transcribed using M‐MLV reverse transcriptase (Invitrogen), according to the manufacturer’s protocol. The newly synthesized cDNA was used as a template for qPCR with the iTaq Universal SYBR Green Supermix. Technical triplicates were used for each sample and the quantified RNA normalized against TBP (human) or Hprt (mouse) as housekeeping transcripts (Supplementary Tables 9 and 10).
# (§2) For hormone depletion, FCS was stripped using the dextran-coated charcoal method. In brief, Norit activated charcoal (C6241-5G, Sigma-Aldrich, final concentration of 0.25%) and Dextran T-70 (31390, Sigma-Aldrich, final concentration of 0.0025%) in 0.25 M sucrose/1.5 mM MgCl2/10 mM HEPES (H4034, Sigma-Aldrich), pH 7.4, were incubated overnight at 4 °C. The volume equivalent to the volume of the FCS to strip was pipetted into a new 50 ml tube and centrifugated at 500g for 10 min to remove the supernatant. The FCS was incubated with the activated charcoal for 12 h at 4 °C. The treated FCS was then filtered through a 0.22-µM pore filter to ensure sterility and mixed with the appropriate phenol red-free medium and PS. Cells were collected using phenol red-free trypsin and starved for oestrogen using phenol red-free/10% stripped FCS for four days. […]
# [2] = test system: GRPR mRNA in MCF7 cells; assay: Pharmacological targeting of ERα: GRPR mRNA in MCF7 cells; type: cell-based, human; conditions: 17β-estradiol 100 nM or ICI 182,780 1 µM
# Procedure: as §1, §2
# [3] = test system: 1057 ΔEcad melanoma cells; assay: ICI/Fulvestrant experiments: lung metastases after tail-vein injection of 1057 cells; type: in vivo, C57BL/6J mice
# Procedure: Mouse and human melanoma cells (5 × 10^5) were suspended in 200 µl PBS and injected into the tail veins of eight-week-old C57BL/6J and NSG mice, respectively. Mice were monitored daily and weighed twice weekly. Euthanasia and autopsy were performed following 20% weight loss or reaching ethical end points.
# Right lungs were imaged using a Leica MZFLIII binocular microscope with a Scion camera. Metastases were quantified in ImageJ, with macro-metastases (bigger than 0.1 mm) and micro-metastases (0.1 mm or smaller).
# In vitro pre-treatment: 1057 melanoma cells (5 × 10^5) were pretreated for 3 days with 1 µM ICI before tail-vein injection. In vivo treatment: 1057 melanoma cells (5 × 10^5) were injected into C57BL/6J mice, followed by […] Fulvestrant (Zentiva) 3 h after injection, then weekly for 3 weeks. Mice were euthanized on day 25 after injection, and lung metastases were assessed by PCR-based Cre transgene detection. DNA was extracted from lung tissue and metastasis burden was analysed statistically.
# [4] = test system: mouse melanoma cell lines (1057, 1064, 1181, 1039, 1456, 1014); assay: Matrigel invasion assay, mouse melanoma cells; type: cell-based; conditions: 24 h
# Procedure: Matrigel invasion assays were done in transwell plates with 8.0-µm pores (353097, Falcon) coated with 100 µl of 200 µg ml^−1 Matrigel. Depending on the experiments, cells were seeded directly or 24 h after transfection in low-serum medium (0.5% FCS for murine cells and 1% for human cell lines) with 10 nM GRP, 1 µM RC-3095, and/or 1 µM IC 182,780, or in 10% FCS. Then, 24 hours after stimulation, inserts were washed with PBS and non-invading cells were removed. Cells in the inserts were fixed in methanol at −20 °C overnight. The inserts were rinsed and the membrane carefully removed using a sharp scalpel. The membrane was mounted in prolong glass DAPI (1.5 µg ml^−1). Assays were performed in triplicate and automatic counting of invading cells was done using an Image/Fiji macro (10.5281/zenodo.14509394). Sequences of siRNAs are given in Supplementary Table 11.
# [5] = test system: GRPR, Gαq/11 activation; assay: IP1 detection (HTRF IP-one Gq kit); type: cell-based, mouse; conditions: 4,000 cells, 30 min, 37 °C, StimB buffer, 10 nM GRP, 1 µM RC-3095, 1 µM ICI-182,780 (pre-treatment)
# Procedure: IP1 levels were quantified using the HTRF IP-one Gq detection kit (62IPAPEB, Revvity) following the manufacturer’s protocol. We treated 4,000 cells for 30 min at 37 °C in StimB buffer with 10 nM GRP, 1 µM RC-3095, 1 µM ICI-182,780 or DMSO. FRET signals (620 nm and 665 nm, excitation at 385 nm) were measured using a Clariostar plate reader (BMG Labtech).
# [6] = biological target: T1, ERα in 1057 mouse melanoma cells (Mus musculus, UniProt P19785); assay: Western blot of ERα after ICI; type: cell-based; conditions: 1057 cells, ICI 1 μM, 24 h
# T1 construct: Effect of ICI treatment on ERα protein levels in murine 1057 melanoma cells; endogenous in cells; host or cells: 1057 mouse melanoma cells (female, ΔEcad, Esr1-positive)
# T1 sequence (P19785 1-599): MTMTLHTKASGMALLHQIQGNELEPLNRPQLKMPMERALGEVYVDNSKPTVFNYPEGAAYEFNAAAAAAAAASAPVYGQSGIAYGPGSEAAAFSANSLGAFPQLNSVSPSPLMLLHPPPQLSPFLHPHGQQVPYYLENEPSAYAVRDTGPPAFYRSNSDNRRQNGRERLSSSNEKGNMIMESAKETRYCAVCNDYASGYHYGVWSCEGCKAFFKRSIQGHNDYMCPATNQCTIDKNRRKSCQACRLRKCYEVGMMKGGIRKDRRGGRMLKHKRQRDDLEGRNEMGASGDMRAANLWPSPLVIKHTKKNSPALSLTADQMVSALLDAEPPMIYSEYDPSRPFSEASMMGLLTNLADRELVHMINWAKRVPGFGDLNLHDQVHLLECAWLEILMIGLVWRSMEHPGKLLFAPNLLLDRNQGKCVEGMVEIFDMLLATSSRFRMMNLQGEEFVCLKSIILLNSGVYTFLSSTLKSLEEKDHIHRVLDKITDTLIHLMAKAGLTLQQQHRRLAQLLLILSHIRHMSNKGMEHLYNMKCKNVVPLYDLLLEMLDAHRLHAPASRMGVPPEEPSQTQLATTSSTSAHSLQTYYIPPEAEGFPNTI
# Procedure: (§3) Whole-cell lysates were prepared and analysed as described previously. The primary antibodies used were: E-cadherin (610182, BD Transduction Laboratories, dilution 1/1,000); ERα (MA1-27107, Invitrogen, dilution 1/500); YAP (14074, Cell Signaling, dilution 1/1,000); β-actin (A5441, Sigma, dilution 1/5,000); and vinculin (4650, Cell Signaling, dilution 1/5,000). All raw data are provided in Supplementary Fig. 1.
# [7] = Metabolic stability assay (liver microsomes); type: in vitro ADME, mouse
# Procedure: Each compound was diluted to a final concentration of 1 µM in 100 mM phosphate buffer (pH 7.4) containing 0.5 mg ml^−1 mouse liver microsomes, 1 mM NADPH regenerating system and 1 mM MgCl2 and incubated at 37 °C for 1 h. At various time points (0, 2, 10, 20, 40 and 60 min), one volume of ice-cold acetonitrile was added and the supernatants were analysed by LC–MS/MS. To obtain a stability curve, the percentage of remaining test compound at each time point was determined by monitoring the peak area. The half-life was estimated from the slope of the initial linear range of the logarithmic curve of the remaining compound (percentage) against time, assuming first-order kinetics.
# Analyses were done on a Shimadzu 8030 LC–MS instrument. Chromatographic separations were done at 40 °C using a 2.6-µm C18 Kinetex column (50 × 2.1 mm; Phenomenex). The mobile phase flow rate was set to 0.5 ml min^−1 and the following program applied for the elution: 0 min, 5% B; 0–1.2 min, 5–95% B; 1.2–1.4 min, 95% B; 1.4–1.42 min, 95-5% B; and 1.42–2.8 min, 5% B (solvent A, 0.05% formic acid in water; solvent B, acetonitrile). The injection volume was 1 µl. The mass spectrometer was interfaced with the liquid-chromatography system using an electrospray ion source. The nitrogen nebulizing gas flow was set to 1.5 l min^−1 and the drying gas flow to 15 ml min^−1. […]
# [8] = test system: ΔEcad mouse 1057 melanoma cells; assay: RT-qPCR of β-catenin targets, Esr1 and Grpr after β-catenin inhibition; type: cell-based; conditions: ΔEcad mouse 1057 cells, iCRT3 10 μM, 48 h (with siRNA targeting Ctnnb1)
# Procedure: as §1
# [9] = test system: Daju human melanoma cells; assay: RT-qPCR and western blot of ESR1/ERα after iCRT3; type: cell-based; conditions: iCRT3 80 μM, 48 h
# Procedure: as §1, §3
structure (smiles),measurement,setting,value
"C[C@]12CC[C@@H]3c4ccc(O)cc4CC[C@H]3[C@@H]1CC[C@@H]2O [E2, 17β-oestradiol]",Grpr expression,[1],increased Grpr expression
same,GRPR mRNA expression,[2],increased GRPR
"C[C@]12CC[C@@H]3c4ccc(O)cc4C[C@@H](CCCCCCCCC[S+]([O-])CCCC(F)(F)C(F)(F)F)[C@H]3[C@@H]1CC[C@@H]2O (stereo partly shown) [ICI 182,780]",Visible metastases (%): mice with visible lung metastases / mice injected,[3],1/6
same,mice with no metastases,"[3]; Fulvestrant 50 mg per kg 3 h after injection of 1057 cells and weekly for three weeks, day 25",5 of 6
same,"Metastatic burden in lungs, qPCR for the 1057-specific Cre transgene","[3]; Fulvestrant-treated mice (50 mg per kg), day 25",reduced
same,"Metastatic burden in lungs, qPCR for the 1057-specific Cre transgene","[3]; ICI-pretreated 1057 cells, day 25",reduced
same,mice with no visible metastases,"[3]; mice injected with ICI-pretreated 1057 cells (3 days, 1 µM), day 25, control 1 of 11",9 of 13
same,"invasion potential of 1057 cells, ICI alone",[4]; 1 µM ICI without GRP,no effect
same,"invasion (number of invading cells), GRPR-positive mouse lines","[4]; 1057 (also 1064, GRPR-transduced 1014 and 1181 for RC-3095), 10 nM GRP, 1 µM RC-3095 and/or 1 µM ICI, Matrigel 200 µg ml−1, 0.5% FCS",significantly reduced
same,"invasion (number of invading cells), Grpr-negative mouse lines","[4]; 1181 male Ecad, 1039 female Ecad, 1456 male ΔEcad, 10 nM GRP and/or 1 µM ICI",no effect
same,"IP1 production, GRPR-positive cells",[5],reduced IP1 production
same,Grpr expression,[1],reduced it
same,GRPR mRNA expression,[2],significantly decreased
same,ERα protein level,[6],reduced
COc1ccc(C2(CNC(=O)[C@](C)(Cc3c[nH]c4ccccc34)NC(=O)Nc3ccc([N+](=O)[O-])cc3)CCCCC2)nc1 [PD-176252],Metabolic stability: t1/2,"[7]; mouse, pH 7.4",1.5 ± 0.1 min
CC(C)C[C@@H](CN[C@@H](CC(C)C)C(N)=O)NC(=O)[C@H](Cc1c[nH]cn1)NC(=O)CNC(=O)[C@@H](NC(=O)[C@H](C)NC(=O)[C@H](Cc1c[nH]c2ccccc12)NC(=O)[C@H](CCC(N)=O)NC(=O)[C@H]1Cc2c([nH]c3ccccc23)CN1)C(C)C [RC-3095],"metabolic stability, comparison of the two GRPR antagonists","[7]; RC-3095 versus PD-176252, murine plasma and liver microsomes",higher metabolic stability
CCc1ccc(-c2nc(CSCC(=O)NCCc3ccccc3)c(C)o2)cc1 [iCRT3],GRP-induced invasion after β-catenin inhibition,"[4]; 1057 cells, iCRT3 and/or GRP",reduced GRP-induced invasion
same,"expression of Nkd1, Esr1 and Grpr (RT-qPCR)",[8],"decreased the expression of Nkd1, Esr1 and Grpr"
same,ERα levels at RNA and protein level,[9],reduction
